Laboratory results from US20170216297A1, “EFFICIENT INHIBITION OF HSP27” (TECHNISCHE UNIVERSITAET DRESDEN, priority 2014, published 2017).

target: HSP27 (Homo sapiens, UniProt P04792); experiment: Capillary electrophoresis of the CS protein precipitates (precipitated citrate synthase as measure of HSP27 inhibition); type: biochemical; conditions: 10 μmol/L; 43° C. for 70 minutes; 750 μmol/L BVDU set at 1
Procedure: (§1) Since the heat-denatured protein aggregates of the citrate synthase from Example 1 are not water-soluble, these can be separated completely from the supernatant by means of centrifugation at room temperature at 16,000×g, 10 min. By using capillary electrophoresis, the compositions of the separated precipitates can be shown and quantified. The relative quantity of protein of precipitated citrate synthase serves as a measure of the efficacy of the test substances.
(§2) In each case, 481 nmol/L HSP27 and 1.44 μmol/L citrate synthase in 40 mmol/L HEPES buffer, pH 7.4, were employed. The relative quantity of protein of the precipitated citrate synthase in each case was normalized using a defined quantity of BSA as internal standard. The relative quantity of protein that precipitated when using 750 μmol/L BVDU was set at 1. The other test substances (2 representatives of phenothiazine derivatives of general formula (V), 2 representatives of purine derivatives of formula (I) or (II)) were each employed at a concentration of 10 μmol/L.
as §1, with “Example 2” for “Example 1”
as §2, with “nM” for “nmol/L”, “thymine” for “purine”, “were” for “were each”, “μmol/L in each case.” for “μmol/L.”
Otherwise, the experiments were performed as described above: […]

Sequence of HSP27 (P04792 whole entry): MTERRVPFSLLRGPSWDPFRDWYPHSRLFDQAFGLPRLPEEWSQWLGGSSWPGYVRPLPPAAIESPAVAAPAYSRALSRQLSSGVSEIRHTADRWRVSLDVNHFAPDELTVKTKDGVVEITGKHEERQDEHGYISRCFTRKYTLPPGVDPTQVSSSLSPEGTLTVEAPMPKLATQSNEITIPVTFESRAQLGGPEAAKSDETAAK

| Structure (SMILES) | Rel. quantity of protein prec. CS |
| --- | --- |
| CCCc1cn([C@H]2C[C@H](n3cc(C)c(=O)[nH]c3=O)O[C@@H]2CO)nn1 [3′-Deoxy-3′-(4-propyl-1H-1,2,3-triazol-1-yl)thymidine] | 0.79 |
| Cc1cn([C@H]2C[C@H](n3cc(-c4ccccc4)nn3)[C@@H](CO)O2)c(=O)[nH]c1=O [3′-Deoxy-3′-(4-phenyl-1H-1,2,3-triazol-1-yl)thymidine] | 0.79 |
| Cc1cn(C2C[C@H](n3cc(-c4ccc(Br)cc4)nn3)[C@@H](CO)O2)c(=O)[nH]c1=O (stereo partly drawn) [1-[(4S,5S)-4-[4-(4-Bromophenyl)-1,2,3-triazol-1-yl]-5-(hydroxymethyl)oxolan-2-yl]-5-methyl-3H-pyrimidine-2,4-dione] | 0.64 |
| Cc1cn([C@H]2C[C@H](n3cc(CC4CCCC4)nn3)[C@@H](CO)O2)c(=O)[nH]c1=O [3′-[4-(Cyclopentylmethyl)-1H-1,2,3-triazol-1-yl]-3′-deoxythymidine] | 0.66 |
| Cc1cn(CCCCNC(=O)C(c2ccccc2)c2ccccc2)c(=O)[nH]c1=O [N-[4-(5-Methyl-2,4-dioxo-3H-pyrimidin-1-yl)butyl]-2,2-diphenylacetamide] | 0.79 |
| Cc1cn(C/C=C\CNC(=O)c2cccc3ccccc23)c(=O)[nH]c1=O [N-[(2Z)-4-(5-Methyl-2,4-dioxo-3H-pyrimidin-1-yl)but-2-en-1-yl]naphthalene-1-carboxamide] | 0.78 |
| Cc1cn([C@H]2C[C@H](n3cc(CCc4ccccc4)nn3)[C@@H](CO)O2)c(=O)[nH]c1=O [3′-Deoxy-3′-[4-(2-phenylethyl)-1H-1,2,3-triazol-1-yl]-thymidine] | 0.74 |
| COc1ccc(-c2cn([C@H]3CC(n4cc(C)c(=O)[nH]c4=O)O[C@@H]3CO)nn2)cc1 (stereo partly drawn) [1-[(4S,5S)-5-(Hydroxymethyl)-4-[4-(4-methoxyphenyl)-1,2,3-triazol-1-yl]oxolan-2-yl]-5-methyl-3H-pyrimidine-2,4-dione] | 0.75 |
| Cc1cn(C/C=C\CNC(=O)C(c2ccccc2)c2ccccc2)c(=O)[nH]c1=O [N-[(2Z)-4-(5-Methyl-2,4-dioxo-3H-pyrimidin-1-yl)but-2-en-1-yl]-2,2-diphenylacetamide] | 0.82 |
| Cc1cn(CCCCNC(=O)C2c3ccccc3-c3ccccc32)c(=O)[nH]c1=O [N-[4-(5-Methyl-2,4-dioxo-3H-pyrimidin-1-yl)butyl]-9H-fluorene-9-carboxamide] | 0.58 |
| Cc1cn([C@H]2C[C@H](n3cc(-c4ccc(F)cc4)nn3)[C@@H](CO)O2)c(=O)[nH]c1=O [3′-Deoxy-3′-[4-(4-fluorophenyl)-1H-1,2,3-triazol-1-yl]-thymidine] | 0.66 |
| Cc1cn(CCCCNC(=O)Cc2ccc3ccccc3c2)c(=O)[nH]c1=O [N-[4-(5-Methyl-2,4-dioxo-3H-pyrimidin-1-yl)butyl]-2-(naphthalen-2-yl)acetamide] | 0.75 |
| Cc1cn(CCCCNC(=O)C2c3ccccc3Oc3ccccc32)c(=O)[nH]c1=O [N-[4-(5-Methyl-2,4-dioxo-3H-pyrimidin-1-yl)butyl]-9H-xanthene-9-carboxamide] | 0.68 |
| Cc1cn([C@H]2C[C@H](n3cc(-c4ccc(Cl)c(Cl)c4)nn3)[C@@H](CO)O2)c(=O)[nH]c1=O [3′-Deoxy-3′-[4-(3,4-dichlorophenyl)-1H-1,2,3-triazol-1-yl]-thymidine] | 0.86 |
| Cc1cn(CCCCNC(=O)Cc2ccc(-c3ccccc3)cc2)c(=O)[nH]c1=O [N-[4-(5-Methyl-2,4-dioxo-3H-pyrimidin-1-yl)butyl]-2-(4-phenylphenyl)acetamide] | 0.67 |
| Cc1cn([C@H]2C[C@H](n3cc(-c4ccc(Cl)cc4)nn3)[C@@H](CO)O2)c(=O)[nH]c1=O [3′-[4-(4-Chlorophenyl)-1H-1,2,3-triazol-1-yl]-3′-deoxythymidine] | 0.67 |
| CCCCc1cn([C@H]2C[C@H](n3cc(C)c(=O)[nH]c3=O)O[C@@H]2CO)nn1 [3′-(4-Butyl-1H-1,2,3-triazol-1-yl)-3′-deoxythymidine] | 0.76 |
| Cc1cn([C@H]2C[C@H](n3cc(C(C)(C)C)nn3)[C@@H](CO)O2)c(=O)[nH]c1=O [3′-Deoxy-3′-[4-(2-methyl-2-propanyl)-1H-1,2,3-triazol-1-yl]thymidine] | 0.61 |
| O=C(Cc1ccc(-c2ccccc2)cc1)NC/C=C\Cn1ccc(=O)[nH]c1=O [N-[(2Z)-4-(2,4-Dioxo-3H-pyrimidin-1-yl)but-2-en-1-yl]-2-(4-phenylphenyl)acetamide] | 0.88 |
| CCCCCc1cn([C@H]2C[C@H](n3cc(C)c(=O)[nH]c3=O)O[C@@H]2CO)nn1 [3′-Deoxy-3′-(4-pentyl-1H-1,2,3-triazol-1-yl)thymidine] | 0.70 |
| Cc1cn(C/C=C\CNC(=O)Cc2ccc3ccccc3c2)c(=O)[nH]c1=O [N-[(2Z)-4-(5-Methyl-2,4-dioxo-3H-pyrimidin-1-yl)but-2-en-1-yl]-2-(naphthalen-2-yl)acetamide] | 0.83 |
| Cc1cn([C@H]2C[C@H](n3cc(-c4ccccn4)nn3)[C@@H](CO)O2)c(=O)[nH]c1=O [3′-Deoxy-3′-[4-(2-pyridinyl)-1H-1,2,3-triazol-1]-yl]thymidine] | 0.84 |
| Cc1cn(C2C[C@H](n3cc(-c4cccc(Br)c4)nn3)[C@@H](CO)O2)c(=O)[nH]c1=O (stereo partly drawn) [1-[(4S,5S)-4-[4-(3-Bromophenyl)-1H-1,2,3-triazol-1-yl]-5-(hydroxymethyl)oxolan-2-yl]-5-methyl-1,2,3,4-tetrahydropyrimidine-2,4-dione] | 0.81 |
| O=C(NC/C=C\Cn1ccc(=O)[nH]c1=O)C1c2ccccc2OC2C=CC=CC21 (centres unmarked) [N-[(2Z)-4-(2,4-Dioxo-3H-pyrimidin-1-yl)but-2-en-1-yl]-9,9a-dihydro-4aH-xanthene-9-carboxamide] | 0.85 |
| Cc1cn(C/C=C\CNC(=O)C2c3ccccc3-c3ccccc32)c(=O)[nH]c1=O [N-[(2Z)-4-(5-Methyl-2,4-dioxo-3H-pyrimidin-1-yl)but-2-en-1-yl]-9H-fluorene-9-carboxamide] | 0.86 |
| Cc1cn(C/C=C\CNC(=O)Cc2cccc3ccccc23)c(=O)[nH]c1=O [N-[(2Z)-4-(5-Methyl-2,4-dioxo-3H-pyrimidin-1-yl)but-2-en-1-yl]-2-(naphthalen-1-yl)acetamide] | 0.81 |
